{"source": "patent US10757943B2", "about": "“Thidiazuron mixtures and uses thereof” (Valent BioSciences LLC, priority 2017, dated 2020)", "test_system": "Concord grape vines", "assay": "Bud break and shoot growth of potted dormant Concord grape vines in the greenhouse (Example 1)", "type": "in vivo", "settings": "for % bud break (vines with at least one bud break): hydrogen cyanamide 10,000 ppm, 17-0-0 197,100 ppm, 15-0-0 239,060 ppm, ACC 1,000 ppm", "text": "An aqueous 50% hydrogen cyanamide solution (Sigma-Aldrich, St. Louis, Mo. USA) was used as the source of hydrogen cyanamide. The commercial product, Dormex® contains 50% hydrogen cyanamide (w/v) in water.\nErger® was used as the source of 15-0-0 fertilizer. (Erger is a registered trademark of Valagro S.P.A., Italy and is available from Helena Chemical Company, Collierville, Tenn., USA). Erger® contains 15% total nitrogen as 3.1% ammoniacal nitrogen, 5.8% nitrate nitrogen and 6.1% urea nitrogen and 3.3% calcium derived from ammonium nitrate, calcium nitrate and urea. As used herein, the term “15-0-0 fertilizer” refers to the Erger® formulation above and all formulations described in International PCT application publication WO/2001/037653A2 by Valagro S.P.A., Italy, which is incorporated, herein, in its entirety.\nCAN-17 was used as the source of 17-0-0 fertilizer. CAN-17 contains 17% total nitrogen as 4.6% ammonium nitrogen and […] nitrate nitrogen and 1.3% urea nitrogen and 8.8% calcium derived from ammonium nitrate and calcium nitrate. CAN-17 is available from J.R. Simplot Company (Boise, Id., USA).\nTo assess the ability of mixtures of the invention to promote and synchronize bud break these mixtures were applied to Concord grape vines and examined for bud break (initiation of growth) and subsequent shoot development. Specifically, 1 year old dormant bare rooted Concord grape vines were planted in pots containing Pro-Mix® BX potting soil (Pro-Mix is a registered trademark of and available from Premier Horticulture Ltd.) and pruned to 5 nodes on a single shoot. Aqueous solutions of thidiazuron, hydrogen cyanamide, 15-0-0 fertilizer, 17-0-0 fertilizer and 1-aminocyclopropane-1-carboxylic acid (“ACC”), and mixtures thereof were each applied individually or sequentially or co-applied to the first-year wood of separate Concord grape vines. Plants were grown in the greenhouse for 49 days and evaluated for percent of vines showing bud break, or relief from dormancy, periodically between 7 days and the conclusion of the experiment. […] At 49 days after treatment (DAT), the plants were sacrificed and measured for total number of flower clusters, total new shoot length, longest new shoot, combined new shoot fresh weight and combined new shoot dry weight. New shoot growth is the growth arising from the dormant buds not including the woody growth that was planted and gave rise to the new growth.\nSynergy is calculated by the Abbott method: %Cexp=A+B−(AB/100), where % Cexp is the expected efficacy and in which A and B are the speed of bud break or shoot length or shoot weight given by the single active ingredients. If the ratio between the experimentally observed efficacy of the mixture Cobs and the expected efficacy of the mixture is greater than 1, synergistic interactions are present in the mixture” (Gisi, Synergistic Interaction of Fungicides in Mixtures, The American Phytopathological Society, 86:11, 1273-1279,1996).", "key": {"[1]": {"settings": "49 days post treatment, thidiazuron ppm as in label, other concentrations as in Table 1"}}}
{"smiles": "NC1(C(=O)O)CC1", "note": "[ACC, 1-aminocyclopropane-1-carboxylic acid]", "values": [{"measurement": "% bud break (vines with at least one bud break)", "setting": "7 DAT, thidiazuron 300 ppm unless label states other", "value": 0, "unit": "%"}, {"measurement": "% bud break (vines with at least one bud break)", "setting": "10 DAT, thidiazuron 300 ppm unless label states other", "value": 11.1, "unit": "%"}, {"measurement": "% bud break (vines with at least one bud break)", "setting": "13 DAT, thidiazuron 300 ppm unless label states other", "value": 11.1, "unit": "%"}, {"measurement": "% bud break (vines with at least one bud break)", "setting": "15 DAT, thidiazuron 300 ppm unless label states other", "value": 11.1, "unit": "%"}, {"measurement": "% bud break (vines with at least one bud break)", "setting": "17 DAT, thidiazuron 300 ppm unless label states other", "value": 11.1, "unit": "%"}, {"measurement": "% bud break (vines with at least one bud break)", "setting": "20 DAT, thidiazuron 300 ppm unless label states other", "value": 11.1, "unit": "%"}, {"measurement": "% bud break (vines with at least one bud break)", "setting": "22 DAT, thidiazuron 300 ppm unless label states other", "value": 22.2, "unit": "%"}, {"measurement": "% bud break (vines with at least one bud break)", "setting": "24 DAT, thidiazuron 300 ppm unless label states other", "value": 22.2, "unit": "%"}, {"measurement": "% bud break (vines with at least one bud break)", "setting": "27 DAT, thidiazuron 300 ppm unless label states other", "value": 22.2, "unit": "%"}, {"measurement": "% bud break (vines with at least one bud break)", "setting": "29 DAT, thidiazuron 300 ppm unless label states other", "value": 33.3, "unit": "%"}, {"measurement": "% bud break (vines with at least one bud break)", "setting": "31 DAT, thidiazuron 300 ppm unless label states other", "value": 33.3, "unit": "%"}, {"measurement": "% bud break (vines with at least one bud break)", "setting": "34 DAT, thidiazuron 300 ppm unless label states other", "value": 55.6, "unit": "%"}, {"measurement": "% bud break (vines with at least one bud break)", "setting": "36 DAT, thidiazuron 300 ppm unless label states other", "value": 66.7, "unit": "%"}, {"measurement": "% bud break (vines with at least one bud break)", "setting": "38 DAT, thidiazuron 300 ppm unless label states other", "value": 77.8, "unit": "%"}, {"measurement": "% bud break (vines with at least one bud break)", "setting": "41 DAT, thidiazuron 300 ppm unless label states other", "value": 77.8, "unit": "%"}, {"measurement": "% bud break (vines with at least one bud break)", "setting": "43 DAT, thidiazuron 300 ppm unless label states other", "value": 77.8, "unit": "%"}, {"measurement": "% bud break (vines with at least one bud break)", "setting": "49 DAT, thidiazuron 300 ppm unless label states other", "value": 77.8, "unit": "%"}, {"measurement": "Combined Shoot Dry Weight", "setting": "[1]", "value": 1.2, "unit": "g"}, {"measurement": "Combined Shoot Fresh Weight", "setting": "[1]", "value": 7.1, "unit": "g"}, {"measurement": "Longest Shoot Length", "setting": "[1]", "value": 27.9, "unit": "cm"}, {"measurement": "Total # of Flower Clusters", "setting": "[1]", "value": 0.1}, {"measurement": "Total Shoot Length", "setting": "[1]", "value": 28.9, "unit": "cm"}, {"measurement": "Dry Weight (g)/25% Bud Break to Harvest (d)", "setting": "combined shoot dry weight at 49 DAT normalised by days from 25% bud break to harvest", "value": 0.06, "unit": "g/day"}, {"measurement": "Dry Weight (g)/50% Bud Break to Harvest (d)", "setting": "combined shoot dry weight at 49 DAT normalised by days from 50% bud break to harvest", "value": 0.08, "unit": "g/day"}, {"measurement": "Fresh Weight (g)/50% Bud Break to Harvest (d)", "setting": "combined shoot fresh weight at 49 DAT normalised by days from 50% bud break to harvest", "value": 0.47, "unit": "g/day"}, {"measurement": "50% Bud Break to Harvest", "setting": "harvest at day 49, thidiazuron 300 ppm unless label states other, other concentrations as in Table 1", "value": 15, "unit": "days"}, {"measurement": "Initial to 50% Bud Break", "setting": "synchrony of bud break, thidiazuron 300 ppm unless label states other, other concentrations as in Table 1", "value": 25, "unit": "days"}, {"measurement": "25% Bud Break (DAT)", "setting": "time to 25% bud break, thidiazuron 300 ppm unless label states other, other concentrations as in Table 1", "value": 28, "unit": "DAT"}, {"measurement": "50% Bud Break (DAT)", "setting": "time to 50% bud break, thidiazuron 300 ppm unless label states other, other concentrations as in Table 1", "value": 34, "unit": "DAT"}]}
